This note sets out measurements from patent publication US10766869B2, “Triazoles for the treatment of demyelinating dieases” (Vertex Pharmaceuticals Incorporated, priority 2015, dated 2020).

Like-named read-outs stand apart in the source and are kept apart here.

This test relates to primary rat mixed cortical cells. The experiment in a line: In vitro myelination assay (MBP positive myelin strands, fold myelin pixels above background). It is filed as cell-based. The following applies: Rattus norvegicus; for fold induction at 1 µM: 1.0 μM compound; for fold induction at 10 µM: 10.0 μM compound. In a few lines: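 P1 rat cortical cells (neurons, OPCs, oligodendrocytes, astrocytes, microglia) were cultured 14 days at 37 °C with compound, with half-medium changes containing 1× compound on days 6 and 10. Fixed cells were immunostained for MBP and imaged at 10×. Total MBP myelin pixels per well were expressed as fold above no-compound baseline at 1.0 μM and 10.0 μM.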

[1] abbreviates: relative to baseline of no added compound, read-out: Fold myelin pixels above background, 1.0 μM.
The mark [2] stands for this setting: relative to baseline of no added compound, read-out: Fold myelin pixels above background, 10.0 μM.
The mark [3] stands for this setting: read-out: Fold myelin pixels above background relative to baseline of no added compound.
Where [4] appears, read: relative to baseline of no added compound, read-out: Fold myelin pixels above background.

Take `CCc1cc(Nc2ncn(-c3cccc(C(F)(F)F)c3)n2)cc(N2CCN(C3COC3)CC2)c1` [Compound 218, N-[3-ethyl-5-[4-(oxetan-3-yl)piperazin-1-yl]phenyl]-1-[3-(trifluoromethyl)phenyl]-1,2,4-triazol-3-amine]: under setting [1], the fold induction at 1 µM was 100 to 1000. Also, under setting [2], the fold induction at 10 µM was not above 1.
Consider `CC(=O)N[C@H]1C[C@H](Oc2cc(C)cc(Nc3ncn(-c4cc(F)cc(F)c4)n3)c2)C1` [Compound 813, N-[3-[3-[[1-(3,5-difluorophenyl)-1,2,4-triazol-3-yl]amino]-5-methyl-phenoxy]cyclobutyl]acetamide], for which, under setting [3], the fold induction at 1 µM fell in the range of 10 to 100 and the fold induction at 10 µM was 1 to 10.
Regarding `CC(=O)N1CCN(c2cc(C(F)(F)F)cc(Nc3ncn(-c4cc(F)cc(F)c4)n3)n2)CC1` [Compound 555, 1-[4-[6-[[1-(3,5-difluorophenyl)-1,2,4-triazol-3-yl]amino]-4-(trifluoromethyl)-2-pyridyl]piperazin-1-yl]ethanone], under setting [4], the fold induction at 1 µM was in the range of 10 to 100 and the fold induction at 10 µM is 100 to 1000.
The matching figures for `Cc1cc(Nc2ncn(-c3cc(F)cc(F)c3)n2)cc(C2CN(C3COC3)CCO2)c1` (stereo not shown) [Compound 581, 1-(3,5-difluorophenyl)-N-[3-methyl-5-[4-(oxetan-3-yl)morpholin-2-yl]phenyl]-1,2,4-triazol-3-amine]: 10 to 100 and not above 1.
As for `COC1(CNc2cc(C)cc(Nc3ncn(-c4cc(F)cc(F)c4)n3)c2)CCC1` [Compound 1029, N1-[1-(3,5-difluorophenyl)-1,2,4-triazol-3-yl]-N3-[(1-methoxycyclobutyl)methyl]-5-methyl-benzene-1,3-diamine], under setting [3], the fold induction at 1 µM fell in the range of 10 to 100 and the fold induction at 10 µM fell in the range of 10 to 100.
Consider `Cc1cc(Nc2ncn(-c3cc(F)cc(F)c3)n2)cc(C2CCCN(C)C2)c1` (stereo not shown) [Compound 328, 1-(3,5-difluorophenyl)-N-[3-methyl-5-(1-methyl-3-piperidyl)phenyl]-1,2,4-triazol-3-amine], for which, under setting [1], the fold induction at 1 µM is 100 to 1000. The fold induction at 10 µM under setting [2] is 100 to 1000.
Take `Cc1cc(Nc2ncn(-c3cc(F)cc(F)c3)n2)cc(N2CCN(CCCN3CCCC3)CC2)c1` [Compound 945, 1-(3,5-difluorophenyl)-N-[3-methyl-5-[4-(3-pyrrolidin-1-ylpropyl)piperazin-1-yl]phenyl]-1,2,4-triazol-3-amine]: under setting [3], the fold induction at 1 µM fell in the range of 1 to 10 and the fold induction at 10 µM was not above 1.
Regarding `Cc1cc(Nc2ncn(-c3cccc(C(F)(F)F)c3)n2)nc(NC2CCOC2)c1` (stereo not shown) [Compound 600, 4-methyl-N2-tetrahydrofuran-3-yl-N6-[1-[3-(trifluoromethyl)phenyl]-1,2,4-triazol-3-yl]pyridine-2,6-diamine], under setting [4], the fold induction at 1 µM lay in the range of 1 to 10 and the fold induction at 10 µM was in the range of 10 to 100.
As to `[2H]C1([2H])N(c2cc(Nc3ncn(-c4cc(F)cc(F)c4)n3)cc(C(F)F)c2)C([2H])([2H])C([2H])([2H])C([2H])([2H])C1([2H])[2H]` [Compound 876, N-[3-(2,2,3,3,4,4,5,5,6,6-decadeuterio-1-piperidyl)-5-(difluoromethyl)phenyl]-1-(3,5-difluorophenyl)-1,2,4-triazol-3-amine], under setting [3], the fold induction at 1 µM lay within 10 to 100 and the fold induction at 10 µM was in the range of 10 to 100.
Consider `Cc1cc(Nc2ncn(-c3cc(F)cc(F)c3)n2)cc(C2CN(C3COC3)C(C)CO2)c1` (stereo not shown) [Compound 629, 1-(3,5-difluorophenyl)-N-[3-methyl-5-[5-methyl-4-(oxetan-3-yl)morpholin-2-yl]phenyl]-1,2,4-triazol-3-amine], for which, under setting [4], the fold induction at 1 µM fell in the range of 10 to 100 and the fold induction at 10 µM was not above 1.
Turning to `Cc1cc(Nc2ncn(-c3ccccc3)n2)cc(N2CCNC(C)C2)c1` (stereo not shown) [Compound 259, N-[3-methyl-5-(3-methylpiperazin-1-yl)phenyl]-1-phenyl-1,2,4-triazol-3-amine], under setting [1], the fold induction at 1 µM lay within 1000 to 10000. Also, the fold induction at 10 µM under setting [2] is not above 1.
Consider `CN1CCN(c2cc(Nc3ncn(-c4ccncn4)n3)cc(C(F)(F)F)c2)CC1` [Compound 96, N-[3-(4-methylpiperazin-1-yl)-5-(trifluoromethyl)phenyl]-1-pyrimidin-4-yl-1,2,4-triazol-3-amine], for which the fold induction at 1 µM under setting [1] lay in the range of 100 to 1000. Moreover, under setting [2], the fold induction at 10 µM lay in the range of 100 to 1000.
For the molecule `[2H]C1([2H])N(CCO)C([2H])([2H])C([2H])([2H])N(c2cc(C)cc(Nc3ncn(-c4cc(F)cc(F)c4)n3)c2)C1([2H])[2H]` [Compound 922, 2-[2,2,3,3,5,5,6,6-octadeuterio-4-[3-[[1-(3,5-difluorophenyl)-1,2,4-triazol-3-yl]amino]-5-methyl-phenyl]piperazin-1-yl]ethanol], under setting [3], the fold induction at 1 µM is 1 to 10 and the fold induction at 10 µM is not above 1.
As to `CCc1cc(Nc2ncn(-c3cncc(C)n3)n2)cc(N2CCN(C3COC3)CC2)c1` [Compound 401, N-[3-ethyl-5-[4-(oxetan-3-yl)piperazin-1-yl]phenyl]-1-(6-methylpyrazin-2-yl)-1,2,4-triazol-3-amine], under setting [4], the fold induction at 1 µM was 100 to 1000 and the fold induction at 10 µM lay within 100 to 1000.
With `CCCc1cc(Nc2ncn(-c3cc(F)cc(F)c3)n2)cc(N2CCN(C3COC3)CC2)c1` [Compound 396, 1-(3,5-difluorophenyl)-N-[3-[4-(oxetan-3-yl)piperazin-1-yl]-5-propyl-phenyl]-1,2,4-triazol-3-amine], under setting [4], the fold induction at 1 µM lay within 10 to 100 and the fold induction at 10 µM was in the range of 10 to 100.
For the molecule `Cc1cc(Nc2ncn(-c3cc(F)cc(F)c3)n2)cc(N2CC(N3CCCC3)C2)c1` [Compound 510, 1-(3,5-difluorophenyl)-N-[3-methyl-5-(3-pyrrolidin-1-ylazetidin-1-yl)phenyl]-1,2,4-triazol-3-amine], under setting [4], the fold induction at 1 µM was 1 to 10 and the fold induction at 10 µM was in the range of 10 to 100.
As for `Cc1cc(Nc2ncn(-c3cc(F)cc(F)c3)n2)nc(N2CCCC(CO)C2)c1` (stereo not shown) [Compound 815, [1-[6-[[1-(3,5-difluorophenyl)-1,2,4-triazol-3-yl]amino]-4-methyl-2-pyridyl]-3-piperidyl]methanol], under setting [3], the fold induction at 1 µM is 1 to 10 and the fold induction at 10 µM is 10 to 100.
The matching figures for `Cc1cc(Nc2ncn(-c3cccc(F)c3)n2)c(F)c(N2CCN(C3COC3)CC2)c1` [Compound 955, N-[2-fluoro-5-methyl-3-[4-(oxetan-3-yl)piperazin-1-yl]phenyl]-1-(3-fluorophenyl)-1,2,4-triazol-3-amine]: 10 to 100 and 1 to 10.
Turning to `Cc1cc(Nc2ncn(-c3ccc(F)c(F)c3)n2)cc(N2CCN(C3(C)COC3)CC2)c1` [Compound 633, 1-(3,4-difluorophenyl)-N-[3-methyl-5-[4-(3-methyloxetan-3-yl)piperazin-1-yl]phenyl]-1,2,4-triazol-3-amine], under setting [4], the fold induction at 1 µM was 10 to 100 and the fold induction at 10 µM fell in the range of 10 to 100.
Regarding `Cc1cc(Nc2ncn(-c3cc(F)cc(F)c3)n2)cc(N2CC(C)C(N3CCOCC3)C2)c1` (stereo not shown) [Compound 871, 1-(3,5-difluorophenyl)-N-[3-methyl-5-(3-methyl-4-morpholino-pyrrolidin-1-yl)phenyl]-1,2,4-triazol-3-amine], under setting [3], the fold induction at 1 µM lay within 1 to 10 and the fold induction at 10 µM fell in the range of 1 to 10.
